In patent US20070249701A1, “Cyclic amine CCR5 receptor antagonists” (TEIJIN LIMITED, priority 1999, published 2007):

Molecular target: T1, human CCR5 (Homo sapiens, UniProt P51681)
T1 construct: expressed in transfected cells; host or cells: CHO cells
Test: Inhibition of binding of [125I]-labeled MIP-1β to membrane fraction of CHO cells expressing human CCR5
Conditions: at a concentration of 10 μM, [125I]-MIP-1β 0.1 to 0.5 nM, read-out: inhibitory activity against binding of human MIP-1β to the membrane fraction of the cells expressing CCR5, Inhibition(%)
Procedure: Measurement of Inhibitory Activity of a Compound Against Binding of [^125I]-Labeled MIP-1β to Membrane Fraction of the Cells Expressing CCR5
To a 96-well plate made of polystyrene, were respectively added 20 μL of a solution prepared by diluting each test compound with an assay buffer (50 mM HEPES, pH 7.4, 5 mM MgCl2, 1 mM CaCl2, 0.2% BSA), 25 μL of a solution obtained by diluting [^125I]-labeled MIP-1β (NEN Life Science Products, Inc.) with the assay buffer so as to provide 0.1 to 0.5 nM and 155 μL (including 4 μg of the membrane fraction) of a suspension prepared by suspending a membrane fraction of CHO cells expressing human CCR5 (the final volume of the reaction solution: 200 μL). […]
After completing the reaction, the reaction suspension was filtered through Filtermate (Packard Instrument Co.), and the filter washed with 250 μL of a precooled washing buffer (10 mM HEPES, pH 7.4, 0.5 M NaCl) nine times. […] The radioactivity was counted using TopCount NXT (Packard Instrument Co.).
The count when 0.2 μM of human MIP-1α instead of the test compound was added was subtracted as nonspecific binding, and the count when the test compound was not added was taken as 100%. Thereby, the inhibitory activity of the test compound against binding of the human MIP-1β to the membrane fraction of the cells expressing CCR5 was calculated. […]

T1 sequence (P51681 whole entry): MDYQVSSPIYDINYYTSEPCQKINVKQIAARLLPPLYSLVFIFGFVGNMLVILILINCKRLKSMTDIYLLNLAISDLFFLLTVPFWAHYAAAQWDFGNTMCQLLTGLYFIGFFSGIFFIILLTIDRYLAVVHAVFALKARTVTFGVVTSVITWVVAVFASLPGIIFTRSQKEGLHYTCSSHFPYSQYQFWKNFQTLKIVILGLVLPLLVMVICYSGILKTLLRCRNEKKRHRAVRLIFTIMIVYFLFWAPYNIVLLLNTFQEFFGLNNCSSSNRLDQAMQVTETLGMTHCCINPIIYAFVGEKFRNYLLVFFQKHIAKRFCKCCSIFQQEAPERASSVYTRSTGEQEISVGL

inhibition at 10 µM: 20 to 50%
SMILES: O=C(CNC(=O)c1cccc(SC(F)(F)F)c1)N[C@@H]1CCN(Cc2ccc(Cl)cc2)C1 [Compd. No. 1606, (R)-1-(4-chlorobenzyl)-3-[{N-(3-(trifluoromethylthio)benzoyl)glycyl}amino]pyrrolidine]
